Assay results: ChEMBL document CHEMBL1909046, “DrugMatrix in vitro pharmacology data”

How the values were obtained:
Interstitial collagenase = target: T1, Interstitial collagenase (Homo sapiens, UniProt P03956); type: tissue-based, Rheumatoid synovial fibroblasts;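 note: MMP-1 enzyme inhibition assay using a peptide substrate; in other assays of this panel Not Active means under 50% inhibition at 10 µM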
T1 sequence (P03956 whole entry): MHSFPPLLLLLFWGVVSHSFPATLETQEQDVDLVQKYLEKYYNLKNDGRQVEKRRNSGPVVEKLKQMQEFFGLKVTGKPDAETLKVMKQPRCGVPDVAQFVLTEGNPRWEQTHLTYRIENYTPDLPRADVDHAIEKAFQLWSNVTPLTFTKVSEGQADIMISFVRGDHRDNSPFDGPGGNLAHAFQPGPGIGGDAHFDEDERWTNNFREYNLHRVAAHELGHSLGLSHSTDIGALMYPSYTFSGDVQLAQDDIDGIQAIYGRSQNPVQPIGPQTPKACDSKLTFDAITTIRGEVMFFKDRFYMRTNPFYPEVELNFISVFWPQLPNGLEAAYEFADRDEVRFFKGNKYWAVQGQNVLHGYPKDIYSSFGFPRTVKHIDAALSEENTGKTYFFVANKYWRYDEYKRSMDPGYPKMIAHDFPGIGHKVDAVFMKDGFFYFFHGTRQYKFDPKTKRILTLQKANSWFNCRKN

[1] = target: T2, Alpha-2C adrenergic receptor (Homo sapiens, UniProt P18825); experiment: DRUGMATRIX: Adrenergic Alpha-2C radioligand binding (ligand: [3H] MK-912); type: cell membranes, Sf9, Membrane; conditions: sf9
T2 sequence (P18825 whole entry): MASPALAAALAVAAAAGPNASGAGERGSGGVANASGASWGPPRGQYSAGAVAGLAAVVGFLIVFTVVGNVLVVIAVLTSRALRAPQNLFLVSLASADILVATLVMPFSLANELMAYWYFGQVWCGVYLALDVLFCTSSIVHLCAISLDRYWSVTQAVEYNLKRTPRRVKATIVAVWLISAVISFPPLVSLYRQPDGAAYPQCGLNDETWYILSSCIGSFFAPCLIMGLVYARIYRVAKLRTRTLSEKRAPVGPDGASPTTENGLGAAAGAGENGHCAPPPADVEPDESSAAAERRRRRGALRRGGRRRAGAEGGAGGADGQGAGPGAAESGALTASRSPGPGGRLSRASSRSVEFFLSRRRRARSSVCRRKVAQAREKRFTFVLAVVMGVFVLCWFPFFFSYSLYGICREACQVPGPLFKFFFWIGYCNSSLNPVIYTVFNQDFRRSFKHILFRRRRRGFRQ

[2] = target: T3, Alpha-1A adrenergic receptor (Rattus norvegicus, UniProt P43140); experiment: DRUGMATRIX: Alpha-1A adrenergic receptor radioligand binding (ligand: prazosin); type: cell membranes, Wistar, Submaxillary gland, Membrane; conditions: Not Active = under 50% inhibition at 10 µM
T3 sequence (P43140 whole entry): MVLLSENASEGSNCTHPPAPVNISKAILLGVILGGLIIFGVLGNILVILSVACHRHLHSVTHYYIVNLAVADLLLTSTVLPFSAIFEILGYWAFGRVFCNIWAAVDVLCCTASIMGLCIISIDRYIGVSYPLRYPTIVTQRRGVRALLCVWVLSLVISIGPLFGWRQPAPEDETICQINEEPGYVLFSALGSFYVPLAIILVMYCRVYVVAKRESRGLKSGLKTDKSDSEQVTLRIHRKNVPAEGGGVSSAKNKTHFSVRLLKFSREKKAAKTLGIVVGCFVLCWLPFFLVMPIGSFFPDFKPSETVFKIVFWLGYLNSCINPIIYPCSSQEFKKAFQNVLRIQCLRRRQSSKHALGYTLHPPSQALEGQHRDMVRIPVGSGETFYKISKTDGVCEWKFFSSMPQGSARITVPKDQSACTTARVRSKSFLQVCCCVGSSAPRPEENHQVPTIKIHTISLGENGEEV

[3] = target: T4, Amine oxidase [flavin-containing] A (Homo sapiens, UniProt P21397); experiment: DRUGMATRIX: Monoamine Oxidase MAO-A enzyme inhibition (substrate: Kynuramine); parameters: species or system BTI-TN-5B1-4; conditions: bti-tn-5b1-4; Not Active = under 50% inhibition at 10 µM
T4 sequence (P21397 whole entry): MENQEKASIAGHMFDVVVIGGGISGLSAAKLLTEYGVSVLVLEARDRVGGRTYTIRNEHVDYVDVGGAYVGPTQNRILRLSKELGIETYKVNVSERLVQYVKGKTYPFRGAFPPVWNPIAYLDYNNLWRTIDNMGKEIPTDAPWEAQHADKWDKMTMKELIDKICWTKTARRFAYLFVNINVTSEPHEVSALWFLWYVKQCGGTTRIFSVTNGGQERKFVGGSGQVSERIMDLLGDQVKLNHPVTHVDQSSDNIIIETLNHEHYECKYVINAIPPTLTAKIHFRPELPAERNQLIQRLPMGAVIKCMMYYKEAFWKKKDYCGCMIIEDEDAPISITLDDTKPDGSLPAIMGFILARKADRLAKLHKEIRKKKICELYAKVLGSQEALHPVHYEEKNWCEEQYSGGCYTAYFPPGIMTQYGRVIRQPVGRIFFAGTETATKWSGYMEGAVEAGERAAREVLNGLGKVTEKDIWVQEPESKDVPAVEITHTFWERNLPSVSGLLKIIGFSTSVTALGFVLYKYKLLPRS

Melanocortin receptor 3 = Melanocortin receptor 3 (Homo sapiens, UniProt P41968); type: cell membranes, Membrane; conditions: hek293; note: in other assays of this panel Not Active means under 50% inhibition at 10 µM
Sequence of Melanocortin receptor 3 (P41968 whole entry): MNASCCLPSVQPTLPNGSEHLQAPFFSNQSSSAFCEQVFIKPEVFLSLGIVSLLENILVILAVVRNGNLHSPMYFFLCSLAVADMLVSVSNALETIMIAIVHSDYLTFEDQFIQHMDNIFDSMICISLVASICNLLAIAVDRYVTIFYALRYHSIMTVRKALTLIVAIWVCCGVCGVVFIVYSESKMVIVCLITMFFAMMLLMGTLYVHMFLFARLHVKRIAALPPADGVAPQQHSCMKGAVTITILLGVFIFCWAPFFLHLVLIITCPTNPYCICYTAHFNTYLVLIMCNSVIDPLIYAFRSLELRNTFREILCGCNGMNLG

[4] = target: Protein phosphatase 3 catalytic subunit alpha (Homo sapiens, UniProt Q08209); parameters: species or system Escherichia coli;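 note: inhibition of calcineurin (PP2B) enzyme activity, measured with DiFMUP as the substrate; in other assays of this panel Not Active means under 50% inhibition at 10 µM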
[5] = target: T5, C-X-C chemokine receptor type 2 (Homo sapiens, UniProt P25025); type: cell membranes, Membrane; conditions: cho-k1; note: in other assays of this panel Not Active means under 50% inhibition at 10 µM
T5 sequence (P25025 whole entry): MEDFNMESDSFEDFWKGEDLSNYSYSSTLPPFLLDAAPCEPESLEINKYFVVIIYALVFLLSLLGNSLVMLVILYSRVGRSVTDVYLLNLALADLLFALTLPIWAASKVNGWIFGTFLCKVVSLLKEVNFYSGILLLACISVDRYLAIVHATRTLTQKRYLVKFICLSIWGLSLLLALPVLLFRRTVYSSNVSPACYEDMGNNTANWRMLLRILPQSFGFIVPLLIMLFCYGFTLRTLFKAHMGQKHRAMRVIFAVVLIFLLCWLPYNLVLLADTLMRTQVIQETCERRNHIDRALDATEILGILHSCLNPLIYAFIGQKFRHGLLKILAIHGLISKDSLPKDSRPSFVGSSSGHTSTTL

[6] = target: Delta-type opioid receptor (Homo sapiens, UniProt P41143); type: cell membranes, HEK293, Membrane; conditions: hek293; note: in other assays of this panel Not Active means under 50% inhibition at 10 µM
Sequence of Delta-type opioid receptor (P41143 whole entry): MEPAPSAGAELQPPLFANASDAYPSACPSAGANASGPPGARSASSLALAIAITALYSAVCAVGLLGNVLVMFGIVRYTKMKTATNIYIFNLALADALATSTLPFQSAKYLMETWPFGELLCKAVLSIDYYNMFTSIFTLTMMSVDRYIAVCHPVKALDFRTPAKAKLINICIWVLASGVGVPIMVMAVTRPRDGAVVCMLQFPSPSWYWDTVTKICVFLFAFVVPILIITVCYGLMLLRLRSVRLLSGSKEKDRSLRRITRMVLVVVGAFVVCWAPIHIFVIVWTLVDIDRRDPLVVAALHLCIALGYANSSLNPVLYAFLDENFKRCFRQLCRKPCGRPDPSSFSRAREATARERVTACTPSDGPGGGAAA

[7] = DRUGMATRIX: Calcium Channel Type L, Benzothiazepine radioligand binding (ligand: [3H] Diltiazem); type: cell membranes, Rattus norvegicus, Wistar, Brain, Membrane; conditions: Not Active = under 50% inhibition at 10 µM
[8] = target: Matrix metalloproteinase-9 (Homo sapiens, UniProt P14780); type: cell-based
Sequence of Matrix metalloproteinase-9 (P14780 whole entry): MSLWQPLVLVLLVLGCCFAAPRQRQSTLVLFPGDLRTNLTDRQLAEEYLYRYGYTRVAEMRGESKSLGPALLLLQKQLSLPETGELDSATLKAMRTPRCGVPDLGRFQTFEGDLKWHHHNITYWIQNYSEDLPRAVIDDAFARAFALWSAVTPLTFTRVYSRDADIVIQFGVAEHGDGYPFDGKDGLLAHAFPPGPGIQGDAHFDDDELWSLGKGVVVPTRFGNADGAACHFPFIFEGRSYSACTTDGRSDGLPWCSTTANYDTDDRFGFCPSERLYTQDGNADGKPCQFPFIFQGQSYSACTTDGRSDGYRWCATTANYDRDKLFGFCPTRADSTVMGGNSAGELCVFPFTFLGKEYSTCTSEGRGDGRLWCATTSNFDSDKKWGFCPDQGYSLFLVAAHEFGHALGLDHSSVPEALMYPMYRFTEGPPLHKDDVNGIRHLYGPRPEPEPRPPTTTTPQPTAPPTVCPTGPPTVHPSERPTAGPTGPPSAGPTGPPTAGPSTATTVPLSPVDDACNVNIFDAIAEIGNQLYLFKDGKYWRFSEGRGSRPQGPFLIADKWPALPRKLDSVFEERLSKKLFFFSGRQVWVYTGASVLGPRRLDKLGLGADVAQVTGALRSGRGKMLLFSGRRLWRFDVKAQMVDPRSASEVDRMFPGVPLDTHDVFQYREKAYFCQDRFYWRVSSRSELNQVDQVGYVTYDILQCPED

[9] = DRUGMATRIX: Purinergic P2X radioligand binding (ligand: [3H] alpha, beta-Methylene-ATP); type: cell membranes, Oryctolagus cuniculus, New Zealand albino, Urinary bladder, Membrane; conditions: Not Active = under 50% inhibition at 10 µM
[10] = DRUGMATRIX: Platelet-Derived Growth Factor (PDGF) radioligand binding (ligand: [125I] PDGF); type: cell-based; conditions: nih3t3; Not Active = under 50% inhibition at 10 µM

CC(=O)S[C@@H]1CC2=CC(=O)CC[C@]2(C)[C@H]2CC[C@@]3(C)[C@@H](CC[C@@]34CCC(=O)O4)[C@H]12 [SPIRONOLACTONE]
Not Active: IC50 (Interstitial collagenase) | IC50 [1] | IC50 [2] | IC50 [3] | IC50 (Melanocortin receptor 3) | IC50 [4] | IC50 [5] | IC50 [6] | IC50 [7] | Ki [7] | IC50 [8] | IC50 [9] | Ki [9] | IC50 [10] | Ki [10]

C[C@]12Cc3c[nH]nc3C[C@@H]1CC[C@@H]1[C@@H]2CC[C@@]2(C)[C@H]1CC[C@]2(C)O [STANOZOLOL]
Not Active: IC50 (Interstitial collagenase) | IC50 [1] | IC50 [2] | IC50 [3] | IC50 (Melanocortin receptor 3) | IC50 [4] | IC50 [5] | IC50 [6] | IC50 [7] | Ki [7] | IC50 [8] | IC50 [9] | Ki [9] | IC50 [10] | Ki [10]

CN(N=O)C(=O)N[C@@H](C=O)[C@@H](O)[C@H](O)[C@H](O)CO [STREPTOZOCIN]
Not Active: IC50 (Interstitial collagenase) | IC50 [1] | IC50 [2] | IC50 [3] | IC50 (Melanocortin receptor 3) | IC50 [4] | IC50 [5] | IC50 [6] | IC50 [7] | Ki [7] | IC50 [8] | IC50 [9] | Ki [9] | IC50 [10] | Ki [10]

Cc1cc(NS(=O)(=O)c2ccc(N)cc2)no1 [SULFAMETHOXAZOLE]
Not Active: IC50 (Interstitial collagenase) | IC50 [1] | IC50 [2] | IC50 [3] | IC50 (Melanocortin receptor 3) | IC50 [4] | IC50 [5] | IC50 [6] | IC50 [7] | Ki [7] | IC50 [8] | IC50 [9] | Ki [9] | IC50 [10] | Ki [10]

Nc1ccc(S(N)(=O)=O)cc1 [SULFANILAMIDE]
Not Active: IC50 (Interstitial collagenase) | IC50 [1] | IC50 [2] | IC50 [3] | IC50 (Melanocortin receptor 3) | IC50 [4] | IC50 [5] | IC50 [6] | IC50 [7] | Ki [7] | IC50 [8] | IC50 [9] | Ki [9] | IC50 [10] | Ki [10]

Nc1ccc(S(=O)(=O)Nc2ccnn2-c2ccccc2)cc1 [SULFAPHENAZOLE]
Not Active: IC50 (Interstitial collagenase) | IC50 [1] | IC50 [2] | IC50 [3] | IC50 (Melanocortin receptor 3) | IC50 [4] | IC50 [5] | IC50 [6] | IC50 [7] | Ki [7] | IC50 [8] | IC50 [9] | Ki [9] | IC50 [10] | Ki [10]

C=CC[C@@H]1/C=C(\C)C[C@H](C)C[C@H](OC)[C@H]2O[C@@](O)(C(=O)C(=O)N3CCCC[C@H]3C(=O)O[C@H](/C(C)=C/[C@@H]3CC[C@@H](O)[C@H](OC)C3)[C@H](C)[C@@H](O)CC1=O)[C@H](C)C[C@@H]2OC [TACROLIMUS ANHYDROUS]
Not Active: IC50 (Interstitial collagenase) | IC50 [1] | IC50 [2] | IC50 [3] | IC50 (Melanocortin receptor 3) | IC50 [4] | IC50 [5] | IC50 [6] | IC50 [7] | Ki [7] | IC50 [8] | IC50 [9] | Ki [9] | IC50 [10] | Ki [10]

CC1CN(c2cc3c(cc2F)c(=O)c(C(=O)O)cn3-c2ccc(F)cc2F)CCN1 (stereo not given) [TEMAFLOXACIN]
Not Active: IC50 (Interstitial collagenase) | IC50 [1] | IC50 [2] | IC50 [3] | IC50 (Melanocortin receptor 3) | IC50 [4] | IC50 [5] | IC50 [6] | IC50 [7] | Ki [7] | IC50 [8] | IC50 [9] | Ki [9] | IC50 [10] | Ki [10]

CC(C)(C)NCC(O)c1cc(O)cc(O)c1 (stereo not given) [TERBUTALINE]
Not Active: IC50 (Interstitial collagenase) | IC50 [1] | IC50 [2] | IC50 [3] | IC50 (Melanocortin receptor 3) | IC50 [4] | IC50 [5] | IC50 [6] | IC50 [7] | Ki [7] | IC50 [8] | IC50 [9] | Ki [9] | IC50 [10] | Ki [10]
